What was measured:
Assay in all cases: relative viability (nuclei count vs DMSO), 5 days (fraction); higher = more cells survive
FG-4592 + Phenformin = compound: Cc1nc(C(=O)NCC(=O)O)c(O)c2ccc(Oc3ccccc3)cc12 [FG-4592] + N=C(N)NC(=N)NCCc1ccccc1 [Phenformin] (partner 250 µM)
Summary of the method: (§1)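 Values are medians from duplicate plates. Each reflects relative viability, defined as the nuclei count of treated wells over that of vehicle wells. Lung cancer cell lines in 1536-well plates were pin-tool dosed one day after seeding with one drug alone or with a fixed anchor-drug dose plus five library-drug doses (not always all listed) in √10 steps, then fixed, stained and imaged at 4× after 5 days.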

FG-4592 = compound: Cc1nc(C(=O)NCC(=O)O)c(O)c2ccc(Oc3ccccc3)cc12 [FG-4592]
Summary of the method: (§2)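 Viability here means nuclei in treated wells divided by nuclei in vehicle wells, reported as the median across plates. Only plates with control CV below 25% and at least one doubling passed. Lung cancer cell lines in 1536-well plates were exposed to five √10-spaced library-drug doses for 5 days and counted from 4× Hoechst images in MetaXpress.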

IU1-47 = compound: CC1=CC(=C(N1C2=CC=C(C=C2)Cl)C)C(=O)CN3CCCCC3 [IU1-47]
Summary of the method: as §2

IU1-47 + Navitoclax = compound: CC1=CC(=C(N1C2=CC=C(C=C2)Cl)C)C(=O)CN3CCCCC3 [IU1-47] + CC1(C)CCC(c2ccc(Cl)cc2)=C(CN2CCN(c3ccc(C(=O)NS(=O)(=O)c4ccc(N[C@H](CCN5CCOCC5)CSc5ccccc5)c(S(=O)(=O)C(F)(F)F)c4)cc3)CC2)C1 [Navitoclax] (partner 0.5 µM)
Summary of the method: as §1

Cell Line	relative viability (FG-4592 + Phenformin; first compound 0.08 µM)	relative viability (FG-4592 + Phenformin; first compound 0.253 µM)	relative viability (FG-4592 + Phenformin; first compound 0.8 µM)	relative viability (FG-4592 + Phenformin; first compound 2.53 µM)	relative viability (FG-4592 + Phenformin; first compound 8 µM)	relative viability (FG-4592; 0.08 µM)	relative viability (FG-4592; 0.253 µM)	relative viability (FG-4592; 0.8 µM)	relative viability (FG-4592; 2.53 µM)	relative viability (FG-4592; 8 µM)	relative viability (IU1-47; 0.08 µM)	relative viability (IU1-47; 0.253 µM)	relative viability (IU1-47; 0.8 µM)	relative viability (IU1-47; 2.53 µM)	relative viability (IU1-47; 8 µM)	relative viability (IU1-47 + Navitoclax; first compound 0.08 µM)	relative viability (IU1-47 + Navitoclax; first compound 0.253 µM)	relative viability (IU1-47 + Navitoclax; first compound 0.8 µM)	relative viability (IU1-47 + Navitoclax; first compound 2.53 µM)	relative viability (IU1-47 + Navitoclax; first compound 8 µM)
NCI-H522	0.711	0.583	0.562	0.669	0.641	0.958	0.947	0.761	0.992	0.823	0.959	0.975	1.01	0.82	0.874	–	–	–	–	–
HCC-15	0.524	0.424	0.533	0.462	0.503	0.978	0.922	0.954	0.95	1.05	1.1	1.08	1.05	0.678	0.976	0.829	0.721	0.815	0.626	0.589
A-427	0.27	0.313	0.341	0.335	0.414	0.923	0.916	0.797	0.866	0.897	1.03	1.04	1.12	0.549	0.956	1.04	0.993	1.04	–	0.926
NCI-H2228	0.358	0.221	0.225	0.348	0.24	0.905	0.868	0.899	1.02	0.644	1.04	1.14	1.06	0.986	0.709	0.871	0.97	1.69	0.659	0.832
NCI-H1734	0.398	0.387	0.343	0.377	0.354	0.824	0.939	0.717	0.808	0.876	1.06	1.07	0.981	–	0.99	0.943	0.873	0.823	–	0.734
PC-14	0.628	0.505	0.411	0.667	0.558	1.07	0.927	0.99	0.982	0.97	1.04	1.05	1.09	0.84	0.933	1.22	1.14	1.16	1.06	0.932
NCI-H1915	0.327	0.362	0.387	0.354	0.398	0.951	0.959	0.918	0.955	1.02	0.995	0.989	1.04	–	0.905	0.822	0.805	0.828	–	0.833
NCI-H1666	0.611	0.518	0.613	0.377	0.562	0.979	0.939	0.953	0.913	0.901	0.953	1.02	0.968	0.957	1.01	1.1	1.04	0.89	0.912	0.824
HCC-366	0.554	0.608	0.626	0.615	0.599	0.798	1	1.02	0.964	1.05	1.03	0.969	1.04	1.04	0.879	1.07	1.09	0.935	–	1.46
SK-MES-1	0.626	0.66	0.669	0.596	0.674	0.991	0.939	0.969	0.981	0.983	1.12	1.22	1.02	1.1	1.06	1.21	1.34	1.27	1.29	1.17
SW 1573	0.388	0.346	0.435	0.372	0.35	0.936	0.79	0.909	0.994	0.896	1.03	1.05	0.958	0.857	0.934	1.03	1.14	1.04	0.893	1.09
NCI-H661	0.271	0.281	0.264	0.274	0.276	0.926	0.942	1.11	0.903	0.972	1.09	1.07	1.12	0.929	1.07	–	–	–	–	–
PC-3 [JPC-3]	0.489	0.457	0.531	0.462	0.486	1.06	0.948	0.987	1.07	1.02	1.09	1.06	1.11	0.705	0.982	0.834	0.817	0.804	–	0.788
NCI-H1623	0.607	0.609	0.595	0.517	0.542	0.964	0.824	0.858	1.05	0.769	1.04	0.981	0.974	0.812	0.882	–	–	–	–	–
